Measured values: PubChem BioAssay (NCI)
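1) Cells in 96-well plates. 2) Compound, 48 h, 5 concentrations. 3) Linear interpolation between surrounding doses. 4) Unreached endpoint = highest concentration. The concentration for full growth arrest is given as TGI.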

What was measured:
Experiment in all cases: DTP human tumour cell line panel, 48 h
786-0 renal = test system: 786-0 renal
A498 renal = test system: A498 renal
A549 NSCLC = test system: A549 NSCLC
ACHN renal = test system: ACHN renal
CCRF-CEM leukemia = test system: CCRF-CEM leukemia
COLO 205 colon = test system: COLO 205 colon
DU-145 prostate = test system: DU-145 prostate
EKVX NSCLC = test system: EKVX NSCLC
HCT-116 colon = test system: HCT-116 colon
HCT-15 colon = test system: HCT-15 colon
HL-60(TB) leukemia = test system: HL-60(TB) leukemia
HOP-62 NSCLC = test system: HOP-62 NSCLC
HS 578T breast = test system: HS 578T breast
HT29 colon = test system: HT29 colon
IGROV1 ovarian = test system: IGROV1 ovarian
K-562 leukemia = test system: K-562 leukemia
KM12 colon = test system: KM12 colon
LOX IMVI melanoma = test system: LOX IMVI melanoma
M14 melanoma = test system: M14 melanoma
MALME-3M melanoma = test system: MALME-3M melanoma
MCF7 breast = test system: MCF7 breast
MDA-MB-231 breast = test system: MDA-MB-231 breast
MDA-MB-435 = test system: MDA-MB-435
MDA-N = test system: MDA-N
MOLT-4 leukemia = test system: MOLT-4 leukemia
NCI-H226 lung = test system: NCI-H226 lung
NCI-H23 lung = test system: NCI-H23 lung
NCI-H522 lung = test system: NCI-H522 lung
NCI/ADR-RES ovarian = test system: NCI/ADR-RES ovarian
OVCAR-3 ovarian = test system: OVCAR-3 ovarian
OVCAR-4 ovarian = test system: OVCAR-4 ovarian
OVCAR-5 ovarian = test system: OVCAR-5 ovarian
OVCAR-8 ovarian = test system: OVCAR-8 ovarian
PC-3 prostate = test system: PC-3 prostate
RPMI-8226 leukemia = test system: RPMI-8226 leukemia
SF-268 CNS = test system: SF-268 CNS
SF-295 CNS = test system: SF-295 CNS
SK-MEL-2 melanoma = test system: SK-MEL-2 melanoma
SK-MEL-28 melanoma = test system: SK-MEL-28 melanoma
SK-MEL-5 melanoma = test system: SK-MEL-5 melanoma
SK-OV-3 ovarian = test system: SK-OV-3 ovarian
SN12C renal = test system: SN12C renal
SNB-19 CNS = test system: SNB-19 CNS
SNB-75 CNS = test system: SNB-75 CNS
SR leukemia = test system: SR leukemia
SW-620 colon = test system: SW-620 colon
TK-10 renal = test system: TK-10 renal
U251 CNS = test system: U251 CNS
UACC-62 melanoma = test system: UACC-62 melanoma
UO-31 renal = test system: UO-31 renal
BT-549 breast = test system: BT-549 breast
CAKI-1 renal = test system: CAKI-1 renal
HCC-2998 colon = test system: HCC-2998 colon
HOP-92 NSCLC = test system: HOP-92 NSCLC
NCI-H460 lung = test system: NCI-H460 lung
RXF 393 renal = test system: RXF 393 renal
SF-539 CNS = test system: SF-539 CNS
UACC-257 melanoma = test system: UACC-257 melanoma

Measured: TGI

CCOC(=O)Nc1[nH]cc(-c2ccccc2)c1C#N
not listed: BT-549 breast | CAKI-1 renal | HCC-2998 colon | HOP-92 NSCLC | NCI-H460 lung | RXF 393 renal | SF-539 CNS | UACC-257 melanoma
> 100 µM: all other assays above

CC(=O)CCn1c(=S)sc2ccccc21
not listed: A498 renal | K-562 leukemia | MALME-3M melanoma | RPMI-8226 leukemia | SR leukemia
> 100 µM: all other assays above
